Source: patent US7598207B2, “Herbicidal composition” (Sumitomo Chemical Company, Limited, priority 2006, dated 2009)

How the values were obtained:
Type in all cases: in vivo
[1] = system: barnyardgrass; assay: Test Example 1: soil-surface granule pot test, herbicidal activity; conditions: flumioxazin 40 g/ha; granules on soil surface; 48 days after application
Text: (§1) Plastic pots each having a diameter of 18 cm and a height of 14 cm were filled with upland soil, and then seeded with wheat and barnyardgrass. On the surface of the soil of the above-mentioned plastic pots, Flumioxazin granules (granules containing 0.25% of flumioxazin, commercial name: Broad Star, produced by Valent U.S.A.), granules containing Compound [I] (prepared by using one part of Compound [I], 0.5 part of Neocol YSK, 2 parts of Toxanon GR31A, 30 parts of Kunigel VI and 66.5 parts of calcium carbonate according to Formulation example 9), and a mixture of the Flumioxazin granules with the granules containing Compound [I] were applied with hand in a designated amount given by Table 1.
(§2) The treated plants were grown in the greenhouse. The herbicidal activity and phytotoxicity against the crop were examined 48 days after the application.

[2] = system: wheat; assay: Test Example 1: soil-surface granule pot test, phytotoxicity against crop; conditions: flumioxazin 40 g/ha; granules on soil surface; 48 days after application
Text: as §1, §2

[3] = system: yellow nutsedge; assay: Test Example 3: soil-surface spray pot test, herbicidal activity; set-up: key: 0: there is no or little difference in the degree of growth between treated plants and untreated plants at the time of observation; 7: show excellent herbicidal activity; 8: show excellent herbicidal activity; 9: show excellent herbicidal activity; 10: the test plants die completely or their growth is completely inhibited; conditions: 21 days after application
Text: Plastic pots each having a width of 32 cm, a depth of 22 cm and a height of 8 cm were filled with upland soil, and then planted with a tuber of yellow nutsedge. Next day, Flumioxazin WDG (water dispersible granules containing 51% of flumioxazin, commercial name: Valor SX, produced by Valent U.S.A.), emulsifiable concentrate containing Compound [I] (prepared by dissolving Compound [I] with acetone containing Tween 20 (surfactant, sorbitan monolaurate polyglycol ether)) and a mixture thereof was diluted with a designated amount of water, and applied uniformly on the surface of the soil with a small sprayer.
The treated plants were grown in the greenhouse. The herbicidal activity and phytotoxicity against the crop were examined 21 days after the application.

[4] = system: barnyardgrass; assay: Test Example 6: soil-surface granule pot test, herbicidal activity; conditions: flumioxazin 25 g/ha; granules on soil surface; 14 days after application
Text: (§3) Plastic pots each having a diameter of 21 cm and a height of 20 cm were filled with upland soil, and then planted with potato and seeded with barnyardgrass, crabgrass and ivyleaf morningglory. Next day, on the surface of the soil of the above-mentioned plastic pots, Flumioxazin granules (granules containing 0.25% of flumioxazin, commercial name: Broad Star, produced by Valent U.S.A.), granules containing 0.9% of Compound [I] (prepared according to Formulation example 9), and a mixture of the Flumioxazin granules with the granules containing Compound [I] were applied with hand in a designated amount given by Table 6.
(§4) The herbicidal activity and phytotoxicity against the vegetable were examined 14 days after the application.

[5] = system: crabgrass; assay: as above; conditions: flumioxazin 25 g/ha; granules on soil surface; 14 days after application
Text: as §3, §4

[6] = system: ivyleaf morningglory; assay: as above; conditions: flumioxazin 25 g/ha; granules on soil surface; 14 days after application
Text: as §3, §4

[7] = system: potato; assay: Test Example 6: soil-surface granule pot test, phytotoxicity against vegetable; conditions: flumioxazin 25 g/ha; granules on soil surface; 14 days after application
Text: as §3, §4

C#CCN1C(=O)COc2cc(F)c(N3C(=O)C4=C(CCCC4)C3=O)cc21 [flumioxazin, N-(7-fluoro-3,4-dihydro-3-oxo-4-prop-2-ynyl-2H-1,4-benzoxadin-6-yl)cyclohex-1-ene-1,2-dicarboxamide]
Herbicidal activity Barnyardgrass [1]: 4 | Phytotoxicity against crop Wheat [2]: No damage | Herbicidal activity Yellow nutsedge ([3]; flumioxazin 25 g/ha): 0 | Herbicidal activity Yellow nutsedge ([3]; flumioxazin 50 g/ha): 1 | Herbicidal activity Barnyardgrass [4]: 1 | Herbicidal activity Crabgrass [5]: 5 | Herbicidal activity Ivyleaf morningglory [6]: 1 | Phytotoxicity against vegetable Potato [7]: No damage
